Values of other authors as cited in patent US8476259B2, “Fasudil in combination therapies for the treatment of pulmonary arterial hypertension” (Asahi Kasei Pharma Corporation, priority 2005, dated 2013).
Where two headings read alike, the source gives them in different places.

Tests used:
[1] = test system: PAH; conditions: oral
[2] = test system: Rho-kinase; conditions: administered to rats
[3] = test system: progressive pulmonary arterial hypertension; conditions: two experimental models
[4] = molecular target: Rho-kinase; conditions: read-out: K(i) value for Rho-kinase
[5] = test system: chronically hypoxic rats; conditions: for high pulmonary arterial pressure: intravenous or oral treatment
[6] = test system: chronic hypoxic mice; conditions: for development of chronic hypoxia-induced PH: intravenous or oral treatment
[7] = test system: rat models of systemic hypertension; conditions: oral
[8] = test system: pulmonary hypertension in rats; conditions: for pulmonary vasodilation: spontaneous PH in fawn-hooded rats
[9] = test system: monocrotaline-induced PH in rats; conditions: for pulmonary arterial lesions: intravenous or oral treatment
[10] = test system: patients with severe pulmonary hypertension; conditions: intravenous
[11] = test system: patients with severe PAH; conditions: versus placebo
[12] = test system: patients with pulmonary hypertension; conditions: aerosolization
[13] = test system: patients with angiographically proven stable angina
[14] = test system: spontaneously hypertensive rats; conditions: rat, in vivo
[15] = test system: patients with Raynaud's phenomenon and systemic sclerosis; conditions: human, in vivo
[16] = test system: rats injected with IL-6; conditions: simultaneous treatment
[17] = in vivo
[18] = inhaled, monocrotaline-induced PH, chronically hypoxic rats
[19] = all 20 patients, 100 mg 3 times a day, 2 weeks
[20] = subgroup (n=8) with well-developed collaterals

CC#CCC(C)[C@H](O)/C=C/[C@@H]1[C@H]2c3cccc(CCCC(=O)O)c3O[C@H]2C[C@H]1O (mixture of isomers) [beraprost]
benefit in PAH over time [1]: benefit in a study in PAH at 3 and 6 months but not at 9 or 12 months | inhibitory effect on Rho-kinase [2]: lack the inhibitory effect on Rho-kinase

Cc1ccc(NC(=O)c2ccc(CN3CCN(C)CC3)cc2)cc1Nc1nccc(-c2cccnc2)n1 [Gleevec]
lung vascular remodeling, pulmonary hypertension and right heart hypertrophy [3]: virtually complete reversal

Cc1cncc2cccc(S(=O)(=O)N3CCCNC[C@@H]3C)c12 [H-1152P, (S)-(+)-2-methyl-1-[(4-methyl-5-isoquinoline)sulfonyl]-homopiperazine]
Ki [4]: 1.6 nM

C[C@@H](N)[C@H]1CC[C@H](C(=O)Nc2ccncc2)CC1 [Y-27632]
elevated pulmonary artery pressure, acute effect ([5]; intravenous): nearly normalized the elevated pulmonary artery pressure | high pulmonary arterial pressure [5]: nearly normalizes | development of chronic hypoxia-induced PH [6]: attenuates | hypotensive effect ([7]; normotensive rats): smaller transient effect | hypotensive effect ([7]; rat models of systemic hypertension): potent hypotensive effects | mean pulmonary arterial pressure ([8]; 5 minutes of inhaled Y-27632): decreased mean pulmonary arterial pressure without reducing mean systemic arterial pressure | duration of hypotensive effect on hypoxic pulmonary hypertension ([8]; inhaled): at least 5 hrs | pulmonary vasodilation [8, 18]: sustained and selective pulmonary vasodilation | pulmonary arterial lesions [9]: reduces pulmonary arterial lesions

COc1ccccc1Oc1c(NS(=O)(=O)c2ccc(C(C)(C)C)cc2)nc(-c2ncccn2)nc1OCCO [bosentan]
liver toxicity (higher dose): liver toxicity occurred with the higher dose | six minute walk test (whole group, greater improvement at higher doses): improved

O=S(=O)(c1cccc2cnccc12)N1CCCNCC1 [fasudil, 1-(5-isoquinolinesulfonyl)-homopiperazine]
high pulmonary arterial pressure [5]: nearly normalizes | pulmonary vascular resistance [10]: significantly reduced | side effects [10]: without side effects | development of chronic hypoxia-induced PH [6]: attenuates | mean pulmonary arterial pressure ([8]; inhaled fasudil, monocrotaline-induced PH, spontaneous PH, chronically hypoxic rats): selective mean pulmonary arterial pressure reductions | pulmonary vasodilation [8, 18]: sustained and selective pulmonary vasodilation | pulmonary arterial lesions [9]: reduces pulmonary arterial lesions

CC#CCC(C)[C@H](O)/C=C/[C@@H]1[C@H]2C/C(=C/CCCC(=O)O)C[C@H]2C[C@H]1O (some centres unmarked) [iloprost]
exercise capacity [11]: improved exercise capacity

CCCCC[C@H](O)/C=C/[C@@H]1[C@H]2C/C(=C/CCCC(=O)O)O[C@H]2C[C@H]1O [prostacyclin]
duration of effects [12]: 15 min | inhibitory effect on Rho-kinase [2]: lack the inhibitory effect on Rho-kinase

COc1cccc(CCc2ccccc2OCC(CN(C)C)OC(=O)CCC(=O)O)c1 (centres unmarked) [sarpogrelate, (φ-amino-alkoxy)phenyl-ethylethylbenzene]
SAS score [13, 19]: significantly increased | exercise time to the onset of 0.1-mV ST depression [13, 19]: prolonged | all parameters ([13]; patients (n=12) without well-developed collaterals): not significantly changed | SAS score [13, 20]: 6.2±1.3 METS | increase of double product at the onset of 0.1-mV ST depression [13, 20]: 15% | time to the onset of 0.1-mV ST depression [13, 20]: 295 ± 127 s | systolic blood pressure or heart weight [14]: no effect | respiratory failure and mean pulmonary arterial pressure [15]: significantly decreased | IL-6-induced increase in medial thickness of small pulmonary arteries and right ventricular hypertrophy [16]: prevented | pulmonary vascular remodeling, right side heart failure and mortality ([9]; immediately following monocrotaline injection): suppressed the severe pulmonary vascular remodeling and right side heart failure and reduced mortality | reversal of established pulmonary hypertension ([9]; late treatment): failed to reverse established pulmonary hypertension | number of proliferating cell nuclear antigen-positive cells ([9]; rat, in vivo): reduced | severity of pulmonary hypertension (medial thickness of small pulmonary arteries and right ventricle/left ventricle and septum ratio) ([9]; rat, in vivo): reduced | thickening of the alveolar walls and interstitial inflammatory cell infiltration ([9]; rat, in vivo): reduced

CCCc1nn(C)c2c(=O)[nH]c(-c3cc(S(=O)(=O)N4CCN(C)CC4)ccc3OCC)nc12 [sildenafil]
pulmonary arterial pressure ([5]; sildenafil, chronic hypoxic rats): reduces | right ventricular hypertrophy ([6]; chronic hypoxic mice): reduces right ventricular hypertrophy | survival rate ([9]; PH induced by monocrotaline injection): improves survival rate

Cc1cc2c(cc1CC(=O)c1sccc1S(=O)(=O)Nc1onc(C)c1Cl)OCO2 [sitaxsentan]
decrease in pulmonary vascular resistance [17]: 30% | six minute walk test [17]: improvement
